The assay has as its target IGF-1R (Homo sapiens (Human), UniProt P08069). The assay is described as follows: Example B-1: IGF-1R Assay (PC3 cells, IGF1 stimulation, AlphaLISA). As to conditions: 200 ng/mL IGF1 stimulation, read-out: Biological Activity against IGF-1R IC50. The format is cell-based. Here is the method:
50K PC3 cells were seeded on day 1 in 50 μL of media in 96-well plate and incubated overnight at 37° C., 5% CO2. On day 2, all cells were expected to be at 80-90% confluency. Cells were starved for two hours by changing the media to 90 μL of EMEM serum-free media and incubated for 2 hours. Next, cells were treated with 10 μL of 10× concentrated and 3× serially diluted compounds for two hours. It makes 1× of compounds in 100 μL media. This was followed by stimulation of cells with 11×IGF1 for 30 min in 10 μL of serum-free EMEM media at the final concentration of 200 ng/mL.
The media was removed and replaced by 50 μL of 1× lysis buffer from the AlphaLISA kit (with 1× of cOmplete™ protease inhibitor). The plates were sealed, and cells were allowed to lyse for 10 min in the shaker before storing the plate at −20° C. until used. The AlphaLISA assay with processed cell lysates were performed as described in the protocol. Briefly, 10 μL of the undiluted sample were loaded to 384 well Optiplates and 5 μL of the acceptor mix (as described in the AlphaLISA kit) was added to each well. The plates were sealed and briefly vortexed followed by the incubation at RT for 3 hours. In the dark, 5 μL of donor mix was added to each well. All plates were sealed and stored at RT overnight. The plates were read in EnVision reader using standard AlphaLISA settings.
Compound activity was analyzed using CBIS data analysis suite (ChemInnovation, CA). Percentage inhibition was calculated using the following formula: % Inhibition=100%×(1−(mean RLU of test sample−mean RLU of vehicle control)/(mean RLU of EC80 control−mean RLU of vehicle control)). The activity for representative examples of the invention is shown in the following table, wherein A: IC50≤500 nM; B: 500 nM<IC50≤2 μM; C: 2 μM<IC50≤10 μM; D: IC50>10 μM.
IGF-1R, sequence (P08069 31-1367): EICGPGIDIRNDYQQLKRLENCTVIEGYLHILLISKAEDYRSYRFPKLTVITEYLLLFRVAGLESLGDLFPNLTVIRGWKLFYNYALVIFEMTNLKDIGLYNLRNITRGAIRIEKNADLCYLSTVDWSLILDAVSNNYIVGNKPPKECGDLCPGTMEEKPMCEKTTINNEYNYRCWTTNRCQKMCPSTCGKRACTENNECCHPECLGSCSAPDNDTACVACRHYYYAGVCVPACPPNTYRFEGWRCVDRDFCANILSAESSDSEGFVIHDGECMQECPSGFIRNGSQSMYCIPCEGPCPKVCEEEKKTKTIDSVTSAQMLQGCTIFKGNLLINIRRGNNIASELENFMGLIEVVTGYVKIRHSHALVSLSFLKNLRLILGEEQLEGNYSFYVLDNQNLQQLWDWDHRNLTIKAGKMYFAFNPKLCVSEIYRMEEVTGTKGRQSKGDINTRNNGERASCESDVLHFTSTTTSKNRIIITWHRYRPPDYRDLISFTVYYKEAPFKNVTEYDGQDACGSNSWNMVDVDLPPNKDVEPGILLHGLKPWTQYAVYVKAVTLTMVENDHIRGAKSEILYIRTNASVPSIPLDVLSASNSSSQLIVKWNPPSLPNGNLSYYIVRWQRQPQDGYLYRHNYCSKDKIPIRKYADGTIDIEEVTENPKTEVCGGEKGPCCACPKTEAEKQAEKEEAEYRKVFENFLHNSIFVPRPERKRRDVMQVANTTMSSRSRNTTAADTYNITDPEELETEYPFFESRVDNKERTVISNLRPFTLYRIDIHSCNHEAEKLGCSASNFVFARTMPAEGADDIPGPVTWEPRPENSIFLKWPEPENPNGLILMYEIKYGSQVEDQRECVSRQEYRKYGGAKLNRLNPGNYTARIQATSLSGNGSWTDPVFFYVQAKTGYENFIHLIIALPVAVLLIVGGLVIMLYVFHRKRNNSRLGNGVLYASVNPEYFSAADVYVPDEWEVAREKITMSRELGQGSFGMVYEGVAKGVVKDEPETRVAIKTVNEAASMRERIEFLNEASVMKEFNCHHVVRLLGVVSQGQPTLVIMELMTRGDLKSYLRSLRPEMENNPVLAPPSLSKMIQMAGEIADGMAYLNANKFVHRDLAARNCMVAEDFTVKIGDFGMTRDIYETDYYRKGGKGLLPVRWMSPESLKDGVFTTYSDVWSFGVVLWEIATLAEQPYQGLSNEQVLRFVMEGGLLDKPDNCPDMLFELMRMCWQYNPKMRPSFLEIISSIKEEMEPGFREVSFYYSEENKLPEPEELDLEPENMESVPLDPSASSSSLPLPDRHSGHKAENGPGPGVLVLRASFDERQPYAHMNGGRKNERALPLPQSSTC
Turning to `COc1cc(Nc2nccc(Nc3cnc4cc(F)cnc4c3)n2)cnc1O[C@H]1C[C@@H](N(C)C)C1` [Compound 85, 4-(7-fluoro-1,5-diaza-3-naphthylamino)-2-{5-methoxy-6-[(1s,3s)-3-(dimethylamino)cyclobutoxy]-3-pyridylamino}pyrimidine], the IC50 fell in the range of 500 to 2000 nM.

For `COc1cc(Nc2nccc(Nc3cnc4cc(F)c(F)cc4c3)n2)cnc1N1CCN(CC#N)CC1` [Compound 49], the IC50 is no more than 500 nM.

For `COc1cc(Nc2nccc(Nc3cnc4cc(F)ccc4c3)n2)ccc1OCCCN1CCCCC1` [Compound 97, 4-(7-fluoro-3-quinolylamino)-2-[3-methoxy-4-(3-piperidinopropoxy)phenylamino]pyrimidine], the IC50 was no more than 500 nM.

For `COc1cc(Nc2nccc(Nc3cnc4c(C(F)(F)F)cccc4c3)n2)ccc1OCCCN1CCCCC1` [Compound 5, 2-[3-methoxy-4-(3-piperidinopropoxy)phenylamino]-4-[8-(trifluoromethyl)-3-quinolylamino]pyrimidine], the IC50 is no more than 500 nM.

With `COc1cc(Nc2nccc(Nc3cnc4ccccc4c3)n2)ccc1OC1CN(C)C1` [Compound 37, 2-[3-methoxy-4-(1-methyl-3-azetidinyloxy)phenylamino]-4-(3-quinolylamino)pyrimidine], the IC50 was no more than 500 nM.

Turning to `CN(C)CCOc1cc(Nc2nccc(Nc3cnc4ccccc4c3)n2)ccc1N1CCOCC1` [Compound 207, 2-{3-[2-(dimethylamino)ethoxy]-4-morpholinophenylamino}-4-(3-quinolylamino)pyrimidine], the IC50 is no more than 500 nM.

In the case of `COC1CCc2ncc(Nc3ccnc(Nc4ccc(OCCCN5CCOCC5)cc4)n3)cc2C1` (centres unmarked) [Compound 67, 4-(6-methoxy-5,6,7,8-tetrahydro-3-quinolylamino)-2-[p-(3-morpholinopropoxy)phenylamino] pyrimidine], the IC50 was 500 to 2000 nM.

For the compound `COc1cc(OCCCN2CCCCC2)ccc1Nc1nccc(Nc2cnc3ccccc3c2)n1` [Compound 20, 2-[2-methoxy-4-(3-piperidinopropoxy)phenylamino]-4-(3-quinolylamino)pyrimidine], the IC50 is no more than 500 nM.

Regarding `COc1cc(N2CCN(CC#N)CC2)ncc1Nc1ncc(F)c(Nc2cc3ccccc3nc2C(N)=O)n1` [Compound 493, 3-(2-{6-[4-(cyanomethyl)-1-piperazinyl]-4-methoxy-3-pyridylamino}-5-fluoro-4-pyrimidinylamino)-2-quinolinecarboxamide], the IC50 is no more than 500 nM.

Turning to `COc1cc(Nc2nccc(Nc3cnc4ccc(OC(F)(F)F)cc4c3)n2)ccc1O[C@H]1C[C@@H](N(C)C)C1` [Compound 128, N2-(4-((1s,3s)-3-(dimethylamino)cyclobutoxy)-3-methoxyphenyl)-N4-(6-(trifluoromethoxy)quinolin-3-yl)pyrimidine-2,4-diamine], the IC50 was no more than 500 nM.

With `COc1ccc2cc(Nc3ccnc(Nc4ccc(O[C@H]5C[C@H](N6CCCCC6)C5)cc4)n3)cnc2c1` [Compound 354, 4-(7-methoxy-3-quinolylamino)-2-{p-[(1r,3r)-3-piperidinocyclobutoxy]phenylamino}pyrimidine], the IC50 is 2000 to 10000 nM.

With `COc1cc(Nc2nccc(Nc3ccc(Cl)nc3C(N)=O)n2)ccc1O[C@H]1C[C@@H](N(C)C)C1` [Compound 275, 6-chloro-3-(2-{3-methoxy-4-[(1s,3s)-3-(dimethylamino)cyclobutoxy]phenylamino}-4-pyrimidinylamino)-2-pyridinecarboxamide], the IC50 is no more than 500 nM.

Turning to `COc1cc(Nc2nccc(Nc3cnc4cc[nH]c4c3)n2)ccc1O[C@H]1C[C@@H](N(C)C)C1` [Compound 299, 4-(1H-1,4-diazainden-6-ylamino)-2-{3-methoxy-4-[(1s,3s)-3-(dimethylamino)cyclobutoxy]phenylamino}pyrimidine], the IC50 was 500 to 2000 nM.

Consider `COc1cc(Nc2nccc(Nc3cnc4ccc(Br)cc4c3)n2)ccc1OCCCN1CCCCC1` [Compound 421, 4-(6-bromo-3-quinolylamino)-2-[3-methoxy-4-(3-piperidinopropoxy)phenylamino]pyrimidine], for which the IC50 is no more than 500 nM.

Values taken from patent publication US20250171431A1, “HETEROCYCLIC INHIBITORS OF IGF-1R FOR TREATMENT OF DISEASE” (HORIZON THERAPEUTICS IRELAND DAC, priority 2023, published 2025).
